Laboratory results as given in paper PMC9139979, “Features of ZED1227: The First-In-Class Tissue Transglutaminase Inhibitor Undergoing Clinical Evaluation for the Treatment of Celiac Disease” (Cells, 2022).
pIC50: −log10 of the molar value.

Columns and labels:
hTG1 = target: T1, hTG1 (Homo sapiens, UniProt P22735); assay: Fluorescent transamidation assay (DCC-assay), hTG1; assay type: biochemical
T1 construct: purchased Zedira T035
T1 sequence (P22735 1-817): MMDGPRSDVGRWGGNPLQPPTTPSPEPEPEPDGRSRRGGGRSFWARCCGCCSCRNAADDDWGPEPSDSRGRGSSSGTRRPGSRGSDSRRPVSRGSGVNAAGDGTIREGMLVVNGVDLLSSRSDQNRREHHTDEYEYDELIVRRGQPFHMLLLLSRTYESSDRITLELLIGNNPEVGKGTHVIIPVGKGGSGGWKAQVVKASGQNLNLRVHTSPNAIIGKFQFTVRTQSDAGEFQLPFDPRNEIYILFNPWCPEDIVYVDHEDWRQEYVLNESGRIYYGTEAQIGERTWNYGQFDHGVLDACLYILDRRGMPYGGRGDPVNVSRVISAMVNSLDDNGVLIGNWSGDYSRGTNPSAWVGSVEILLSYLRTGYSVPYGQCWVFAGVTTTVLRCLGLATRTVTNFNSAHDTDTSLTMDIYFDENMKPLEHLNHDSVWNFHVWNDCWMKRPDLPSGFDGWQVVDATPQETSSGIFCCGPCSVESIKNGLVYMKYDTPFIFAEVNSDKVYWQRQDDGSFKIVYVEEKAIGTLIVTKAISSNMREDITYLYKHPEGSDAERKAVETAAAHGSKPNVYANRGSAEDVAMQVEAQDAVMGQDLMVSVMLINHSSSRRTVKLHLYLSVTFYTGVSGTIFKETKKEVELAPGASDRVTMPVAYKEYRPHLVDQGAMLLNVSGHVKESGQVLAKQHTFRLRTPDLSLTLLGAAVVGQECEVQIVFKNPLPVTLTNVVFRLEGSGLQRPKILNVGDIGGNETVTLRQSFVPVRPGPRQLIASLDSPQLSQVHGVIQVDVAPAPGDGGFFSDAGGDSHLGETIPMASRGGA
Method: Inhibition data were determined using the fluorescent transamidation assay (dansylcadaverine incorporation into glutamine-donor substrate N,N-dimethyl casein, DCC-assay). Briefly, to 15 μL of ZED1227 solution (dissolved and serial diluted in 2% (v/v) DMSO/assay buffer), 285 μL assay buffer [47.5 mM tris(hydroxymethyl)aminomethane, 9.5 mM CaCl2, 9.5 mM glutathione, 2.4% (v/v) glycerol, 190 mM NaCl, pH 8.0] containing dansylcadaverine (15.9 μM), N,N-dimethyl casein (3.8 μM) and the indicated recombinant transglutaminase enzyme [0.95 μg/mL hTG1 (T035), 0.81 μg/mL hTG2 (T022), 0.83 μg/mL hTG6 (T021), all from Zedira] were added, mixed and the kinetic measurement started immediately. […]
Fluorescence emission was continuously monitored for 30 min at λem = 500 nm (λex = 330 nm) and 37 °C using a CLARIOstar fluorescence plate reader (BMG Labtech, Ortenberg, Germany). […] The respective IC50 (and IC90 for TG2) values were calculated by non-linear regression using the MARS software package (BMG Labtech). […]
To facilitate comparability during lead structure optimization and to roughly estimate concentrations needed at the target site, the apparent IC50 values (calculated by four-parameter non-linear fit by MARS software) for irreversible inhibitors are more instructive and are therefore reported. […]

hTG3 = target: T2, hTG3 (Homo sapiens, UniProt Q08188); assay: Fluorescent transamidation assay (DCC-assay), hTG3; assay type: biochemical
T2 construct: purchased Zedira T013
T2 sequence (Q08188 2-467 limits assumed): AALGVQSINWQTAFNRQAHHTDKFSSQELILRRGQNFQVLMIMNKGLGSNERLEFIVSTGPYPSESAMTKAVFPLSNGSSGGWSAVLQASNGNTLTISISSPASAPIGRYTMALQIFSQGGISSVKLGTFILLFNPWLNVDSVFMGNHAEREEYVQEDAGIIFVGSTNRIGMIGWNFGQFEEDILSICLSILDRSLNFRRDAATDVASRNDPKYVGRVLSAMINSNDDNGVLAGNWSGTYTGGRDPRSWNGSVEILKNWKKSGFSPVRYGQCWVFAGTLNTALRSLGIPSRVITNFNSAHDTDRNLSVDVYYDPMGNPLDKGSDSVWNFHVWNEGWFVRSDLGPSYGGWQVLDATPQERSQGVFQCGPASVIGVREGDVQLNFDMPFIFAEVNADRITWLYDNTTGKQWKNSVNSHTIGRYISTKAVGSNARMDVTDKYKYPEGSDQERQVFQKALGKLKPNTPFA
T2 sequence (Q08188 468-693 partner limits assumed): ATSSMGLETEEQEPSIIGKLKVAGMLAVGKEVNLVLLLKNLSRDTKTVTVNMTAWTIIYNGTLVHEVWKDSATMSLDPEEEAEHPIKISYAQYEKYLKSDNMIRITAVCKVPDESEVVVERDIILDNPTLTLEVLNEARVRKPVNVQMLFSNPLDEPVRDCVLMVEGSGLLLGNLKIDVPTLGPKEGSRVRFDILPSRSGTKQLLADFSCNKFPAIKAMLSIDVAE

CCC(CC)CNC(=O)Cn1cccc(NC(=O)[C@H](CC/C=C/C(=O)OC)NC(=O)c2cncn2C)c1=O [ZED1227, (S,E)-Methyl 7-(1-(2-(2-ethylbutylamino)-2-oxoethyl)-2-oxo-1,2-dihydropyridin-3-ylamino)-6-(1-methyl-1H-imidazole-5-carboxamido)-7-oxohept-2-enoate]
Selectivity hTG1 versus hTG2 (hTG1; ratio of app. IC50 values): 469 fold | pIC50 (hTG1; recombinant, transamidation assay, read-out: App. IC50 hTG1): 4.60 | Selectivity hTG3 versus hTG2 (hTG3; ratio of app. IC50 values): >900 fold | pIC50 (hTG3; recombinant, activated hTG3a, transamidation assay, read-out: App. IC50 hTG3): < 4.30
